{
  "source": "paper PMC12584752",
  "about": "“Covalent fragment screening to inhibit the E3 ligase activity of bacterial NEL enzymes SspH1 and SspH2” (RSC Chemical Biology, 2025)",
  "key": {"SspH1 (161–700)": {"target": "SspH1 (161–700) (Salmonella typhimurium, UniProt D0ZVG2)", "sequence (D0ZVG2 161-700)": "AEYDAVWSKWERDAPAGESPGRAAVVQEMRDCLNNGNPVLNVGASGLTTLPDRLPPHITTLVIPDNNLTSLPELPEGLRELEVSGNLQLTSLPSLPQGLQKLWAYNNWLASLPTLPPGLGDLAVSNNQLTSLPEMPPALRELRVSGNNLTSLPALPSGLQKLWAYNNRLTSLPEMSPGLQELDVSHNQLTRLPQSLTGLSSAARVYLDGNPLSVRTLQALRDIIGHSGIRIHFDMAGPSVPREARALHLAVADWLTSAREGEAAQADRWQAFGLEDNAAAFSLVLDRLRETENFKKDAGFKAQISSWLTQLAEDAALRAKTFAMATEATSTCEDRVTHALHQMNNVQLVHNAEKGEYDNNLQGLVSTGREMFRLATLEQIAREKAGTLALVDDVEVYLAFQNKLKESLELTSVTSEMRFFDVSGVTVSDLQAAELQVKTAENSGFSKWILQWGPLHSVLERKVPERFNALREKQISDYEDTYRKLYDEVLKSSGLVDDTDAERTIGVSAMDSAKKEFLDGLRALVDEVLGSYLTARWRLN", "assay": "Round 1 intact protein LC-MS covalent fragment labelling screen and dilution series", "format": "binding", "parameters": "Recombinant IpaH9.8 (21–545) and SspH1 (161–700) were incubated at 0.5 μM; His-tag (N, cleaved yes); made in house; host or cells: E. coli BL21", "conditions": "24 hours at 4 °C", "description": "A diverse library of 227 compounds with chloroacetamide warheads, featuring a diversity of molecular weight (162–321 Da) and clog P (−1.4 to 3.4) (Table S1), were screened against Salmonella and Shigella NEL E3 ligases using our intact protein liquid chromatography mass spectrometry (LC-MS) platform as previously described.[39,40] Briefly, recombinant SspH1 (161–700[30]) and IpaH9.8 (21–545[29]) (Fig. 1A and B) were incubated with 50 μM fragments for 24 hours at 4 °C before analysis by LC-MS (Fig. 1C). Raw counts were deconvoluted and the labelling percentage calculated by detection and comparison of protein and protein-fragment molecular weights.\nFig. 1 Intact protein LCMS screening of covalent fragment library against NEL proteins. (A) Cartoon depicting conserved NEL E3 ligase domains; (B) overlaid structures of SspH1 (blue, PDB 9H6W[30]) and IpaH9.8 (green, PDB 6LOL[29]) aligned on NEL domain; (C) workflow of covalent fragment screening using intact LC-MS; (D) fragment labelling percentages for SspH1 and IpaH9.8 with fragments 1–3 highlighted. Recombinant IpaH9.8 (21–545) and SspH1 (161–700) were incubated at 0.5 μM with 50 μM fragments for 24 hours at 4 °C, before fragment labelling was analysed by intact LC-MS; (E) chemical structures of fragments 1–3.\nWe next analysed the potency of compounds 4–10 against SspH1. The seven compounds were obtained as purified compounds (Table S2) and screened against SspH1 by intact LC-MS (Fig. 3A) with two-fold serial dilution (100–6.25 μM). To confirm which of the two cysteines in the SspH1 161–700 construct were labelled, we repeated the concentration response experiment with a catalytic cysteine mutant of SspH1 (C492K) (Fig. 3B). The complete abrogation of labelling confirmed that all […] compounds labelled the catalytic cysteine of SspH1.\n1 μM IpaH9.8 or SspH1 were incubated with […] fragments for 24 hours at 4 °C, in 25 mM HEPES pH 7.5, 50 mM NaCl buffer. Intact protein LC-MS was performed as previously described.[40] The following deconvolution conditions were used for recombinant proteins studied in this work:\nDilution series experiments were performed as for 1st round screening. 1 μM OTUD4, OTUD5 or 0.5 μM HOIL, UbcH5A, SspH2, SspH1 C492K were incubated with 100–6.25 μM compounds for 24 hours at 4 °C, in 25 mM HEPES pH 7.5, 50 mM NaCl buffer. Intact protein LC-MS was performed as previously described.[40] The following deconvolution conditions were used for recombinant proteins studied in this work: […]"}, "HEK293T cells": {"tested_on": "HEK293T cells", "assay": "Cell toxicity observed during in-cell treatment", "format": "cell-based, human", "conditions": "50 μM, four hours", "description": "We next interrogated whether compounds 6 or 7 could engage SspH1 or SspH2 in live human cells. To simplify experimental setup, we opted for NEL overexpression in mammalian cells, coupled with chemoproteomics, over a Salmonella infection-based assay. SspH1 or SspH2 were transiently expressed in HEK293T cells (Fig. S6), and cells treated with 50 μM of either compound 6 or 7 for four hours. […] Following cell lysis, we again utilized an IA-DTB chemoproteomics workflow to assess cysteine engagement.[52] Peptides engaging with compound 6 were identified with an average log2 CR ≤ −1 and P-value ≤0.05 when compared to DMSO controls (Fig. 5C and D). […] However, none of these included catalytic cysteines-containing peptides of HECT or RBR E3 ligases, nor of DUBs. Therefore, compound 6 provides a useful starting point for medicinal chemistry campaigns to design potent and specific tool compounds for SspH1 and SspH2.\nAll cells were grown in DMEM media (Gibco, 41966-029) supplemented with FBS (ThermoFisher, A5256701) and Pen/Strep (Gibco, 15140-122) at 37 °C with 5% CO2. SspH1 (aa 1–700) and SspH2 (aa 1–786) genes were cloned separately into […] plasmids. HEK293T cells were seeded in 6-well plates at a density of 2 × 10^5 cells per well. […] Protein concentrations were measured using a Rapid BCA Gold Protein Assay Kit (Thermo Scientific, A53226) and diluted to 1 mg mL^−1 with lysis buffer. […]"}},
  "data": [
    {"smiles": "Cc1cc(-c2nc3ccccc3n2C2CCN(C(=O)CCl)CC2)cc(C)c1O.Cl", "note": "[compound 6]", "values": [
      {"measurement": "labelling of WT SspH1", "setting": "SspH1 (161–700); purified compound at 6.25 μM", "value": "> 60", "unit": "%"},
      {"measurement": "labelling of WT SspH1", "setting": "SspH1 (161–700); purified compound at 12.5 μM", "value": "> 80", "unit": "%"},
      {"measurement": "cell toxicity", "setting": "HEK293T cells", "value": "no apparent cell toxicity"}
    ]},
    {"smiles": "Cl.O=C(CCl)N1CCC(n2c(-c3ccc(C(F)(F)F)cc3)nc3ccccc32)CC1", "note": "[compound 7]", "values": [
      {"measurement": "labelling of WT SspH1", "setting": "SspH1 (161–700); purified compound at 6.25 μM", "value": "> 60", "unit": "%"},
      {"measurement": "labelling of WT SspH1", "setting": "SspH1 (161–700); purified compound at 12.5 μM", "value": "> 80", "unit": "%"},
      {"measurement": "cell toxicity", "setting": "HEK293T cells", "value": "significant effects on cell attachment and potential toxicity"}
    ]}
  ]
}
